Experimental data from PubChem BioAssay AID2060886 (Molecular Pharmacology Branch, DTP, NCI, 2025).
Blank lines part the entries; values can stand above or below the molecule they belong to.

Tested on: 653999-131-R-J2-PDC complex spheroids, growth inhibition
Assay: Anticancer human tumor 653999-131-R-J2-PDC patient-derived lung adenocarcinoma cell line growth inhibition [RAS]
Details: for IC50: curve of first compound; for viability, T/C: stronger effect = lower value
Procedure, shortened: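 Tumour cells grown as complex spheroids with HUVEC endothelial cells and mesenchymal stem cells, treated with RAS pathway inhibitor combinations. Each agent spans half-log steps from near clinical Cmax, or 10 microM where Cmax is unknown.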

[1] = second compound 0.000949 µM, first compound 0.0316 µM
[2] = second compound 0.000949 µM, first compound 0.1 µM
[3] = second compound 0.000949 µM, first compound 0.316 µM
[4] = second compound 0.000949 µM, first compound 1 µM
[5] = second compound 0.000949 µM, first compound 3.16 µM
[6] = second compound 0.000949 µM, first compound 10 µM
[7] = second compound 0.003 µM, first compound 0.0316 µM
[8] = second compound 0.003 µM, first compound 0.1 µM
[9] = second compound 0.003 µM, first compound 0.316 µM
[10] = second compound 0.003 µM, first compound 1 µM
[11] = second compound 0.003 µM, first compound 3.16 µM
[12] = second compound 0.003 µM, first compound 10 µM
[13] = second compound 0.00949 µM, first compound 0.0316 µM
[14] = second compound 0.00949 µM, first compound 0.1 µM
[15] = second compound 0.00949 µM, first compound 0.316 µM
[16] = second compound 0.00949 µM, first compound 1 µM
[17] = second compound 0.00949 µM, first compound 3.16 µM
[18] = second compound 0.00949 µM, first compound 10 µM
[19] = second compound 0.03 µM, first compound 0.0316 µM
[20] = second compound 0.03 µM, first compound 0.1 µM
[21] = second compound 0.03 µM, first compound 0.316 µM
[22] = second compound 0.03 µM, first compound 1 µM
[23] = second compound 0.03 µM, first compound 3.16 µM
[24] = second compound 0.03 µM, first compound 10 µM
[25] = second compound 0.0949 µM, first compound 0.0316 µM
[26] = second compound 0.0949 µM, first compound 0.1 µM
[27] = second compound 0.0949 µM, first compound 0.316 µM
[28] = second compound 0.0949 µM, first compound 1 µM
[29] = second compound 0.0949 µM, first compound 3.16 µM
[30] = second compound 0.0949 µM, first compound 10 µM
[31] = second compound 0.3 µM, first compound 0.0316 µM
[32] = second compound 0.3 µM, first compound 0.1 µM
[33] = second compound 0.3 µM, first compound 0.316 µM
[34] = second compound 0.3 µM, first compound 1 µM
[35] = second compound 0.3 µM, first compound 3.16 µM
[36] = second compound 0.3 µM, first compound 10 µM
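Also: spheroids exposed to the agents for seven days before the readout.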

IC50 (second compound 0.000949 µM): 2010 nM
IC50 (second compound 0.003 µM): 1980 nM
IC50 (second compound 0.00949 µM): 1940 nM
IC50 (second compound 0.03 µM): 2090 nM
IC50 (second compound 0.0949 µM): 1840 nM
IC50 (second compound 0.3 µM): 1910 nM
Compound: CCC(CC)c1cc(NC2CCC(N)C2)n2nccc2n1 (stereo not drawn) + CCn1c(-c2cccnc2C(C)OC)c2c3cc(ccc31)N1CCOC(CC(NC(=O)C(C(C)C)N(C)C(=O)C3(F)CCN(C(=O)C#CC(C)(C)N(C)C)CC3)C(=O)N3CCCC(N3)C(=O)OCC(C)(C)C2)C1
viability, T/C [1]: 101%
viability, T/C [2]: 99.6%
viability, T/C [3]: 102%
viability, T/C [4]: 98.6%
viability, T/C [5]: 15%
viability, T/C [6]: 22.1%
viability, T/C [7]: 111%
viability, T/C [8]: 107%
viability, T/C [9]: 106%
viability, T/C [10]: 95.9%
viability, T/C [11]: 17.7%
viability, T/C [12]: 18.7%
viability, T/C [13]: 102%
viability, T/C [14]: 114%
viability, T/C [15]: 106%
viability, T/C [16]: 93%
viability, T/C [17]: 14.4%
viability, T/C [18]: 22.5%
viability, T/C [19]: 96%
viability, T/C [20]: 107%
viability, T/C [21]: 114%
viability, T/C [22]: 112%
viability, T/C [23]: 17%
viability, T/C [24]: 19.1%
viability, T/C [25]: 97.5%
viability, T/C [26]: 115%
viability, T/C [27]: 121%
viability, T/C [28]: 88.5%
viability, T/C [29]: 12%
viability, T/C [30]: 20%
viability, T/C [31]: 92.1%
viability, T/C [32]: 97.6%
viability, T/C [33]: 108%
viability, T/C [34]: 92.1%
viability, T/C [35]: 13.7%
viability, T/C [36]: 20.5%

IC50 (second compound 0.0316 µM): > 10000 nM
IC50 (second compound 0.1 µM): > 10000 nM
IC50 (second compound 0.316 µM): > 10000 nM
IC50 (second compound 1 µM): 193 nM
IC50 (second compound 3.16 µM): < 31.6 nM
IC50 (second compound 10 µM): < 31.6 nM
Compound: Cc1nc(N2CCC3(CC2)COC(C)C3N)c(CO)nc1Sc1ccnc(N)c1Cl (stereo not drawn) + C#Cc1c(F)ccc2cc(O)cc(-c3ncc4c(N5CC6CCC(C5)N6)nc(OCC56CCCN5CC(F)C6)nc4c3F)c12
viability, T/C (second compound 0.0316 µM, first compound 0.0316 µM): 89.8%
viability, T/C (second compound 0.0316 µM, first compound 0.1 µM): 88.9%
viability, T/C (second compound 0.0316 µM, first compound 0.316 µM): 74.5%
viability, T/C (second compound 0.0316 µM, first compound 1 µM): 69.2%
viability, T/C (second compound 0.0316 µM, first compound 3.16 µM): 73.2%
viability, T/C (second compound 0.0316 µM, first compound 10 µM): 76.2%
viability, T/C (second compound 0.1 µM, first compound 0.0316 µM): 65.3%
viability, T/C (second compound 0.1 µM, first compound 0.1 µM): 62.1%
viability, T/C (second compound 0.1 µM, first compound 0.316 µM): 66%
viability, T/C (second compound 0.1 µM, first compound 1 µM): 60%
viability, T/C (second compound 0.1 µM, first compound 3.16 µM): 64.3%
viability, T/C (second compound 0.1 µM, first compound 10 µM): 55.2%
viability, T/C (second compound 0.316 µM, first compound 0.0316 µM): 68.4%
viability, T/C (second compound 0.316 µM, first compound 0.1 µM): 52.6%
viability, T/C (second compound 0.316 µM, first compound 0.316 µM): 50.5%
viability, T/C (second compound 0.316 µM, first compound 1 µM): 45.9%
viability, T/C (second compound 0.316 µM, first compound 3.16 µM): 74.5%
viability, T/C (second compound 0.316 µM, first compound 10 µM): 47.9%
viability, T/C (second compound 1 µM, first compound 0.0316 µM): 61.8%
viability, T/C (second compound 1 µM, first compound 0.1 µM): 52.9%
viability, T/C (second compound 1 µM, first compound 0.316 µM): 48.5%
viability, T/C (second compound 1 µM, first compound 1 µM): 41.1%
viability, T/C (second compound 1 µM, first compound 3.16 µM): 30.5%
viability, T/C (second compound 1 µM, first compound 10 µM): 30.2%
viability, T/C (second compound 3.16 µM, first compound 0.0316 µM): 41.9%
viability, T/C (second compound 3.16 µM, first compound 0.1 µM): 35.4%
viability, T/C (second compound 3.16 µM, first compound 0.316 µM): 32.2%
viability, T/C (second compound 3.16 µM, first compound 1 µM): 21.8%
viability, T/C (second compound 3.16 µM, first compound 3.16 µM): 17.3%
viability, T/C (second compound 3.16 µM, first compound 10 µM): 20.2%
viability, T/C (second compound 10 µM, first compound 0.0316 µM): 27%
viability, T/C (second compound 10 µM, first compound 0.1 µM): 13.9%
viability, T/C (second compound 10 µM, first compound 0.316 µM): 18.9%
viability, T/C (second compound 10 µM, first compound 1 µM): 11%
viability, T/C (second compound 10 µM, first compound 3.16 µM): 8.6%
viability, T/C (second compound 10 µM, first compound 10 µM): 9.77%

IC50 (second compound 0.000949 µM): 43.1 nM
IC50 (second compound 0.003 µM): 18 nM
IC50 (second compound 0.00949 µM): 7.57 nM
IC50 (second compound 0.03 µM): < 3.16 nM
IC50 (second compound 0.0949 µM): < 3.16 nM
IC50 (second compound 0.3 µM): < 3.16 nM
Compound: O=C(c1ccc(F)c(F)c1Nc1ccc(I)cc1F)N1CC(O)([C@@H]2CCCCN2)C1 + CCn1c(-c2cc(N3CCN(C)CC3)cnc2C(C)OC)c2c3cc(ccc31)-c1csc(n1)CC(NC(=O)C1CC1C)C(=O)N1CCCC(N1)C(=O)OCC(C)(C)C2
viability, T/C (second compound 0.000949 µM, first compound 0.00316 µM): 77.8%
viability, T/C (second compound 0.000949 µM, first compound 0.01 µM): 73.4%
viability, T/C [1]: 48.3%
viability, T/C [2]: 43.1%
viability, T/C [3]: 14.6%
viability, T/C [4]: 4.82%
viability, T/C (second compound 0.003 µM, first compound 0.00316 µM): 52.7%
viability, T/C (second compound 0.003 µM, first compound 0.01 µM): 54%
viability, T/C [7]: 45.5%
viability, T/C [8]: 34.8%
viability, T/C [9]: 12%
viability, T/C [10]: 4.41%
viability, T/C (second compound 0.00949 µM, first compound 0.00316 µM): 52.2%
viability, T/C (second compound 0.00949 µM, first compound 0.01 µM): 50.2%
viability, T/C [13]: 34.1%
viability, T/C [14]: 14.4%
viability, T/C [15]: 7.76%
viability, T/C [16]: 3.12%
viability, T/C (second compound 0.03 µM, first compound 0.00316 µM): 26.6%
viability, T/C (second compound 0.03 µM, first compound 0.01 µM): 16.9%
viability, T/C [19]: 15.1%
viability, T/C [20]: 9.74%
viability, T/C [21]: 4.27%
viability, T/C [22]: 3.44%
viability, T/C (second compound 0.0949 µM, first compound 0.00316 µM): 19.7%
viability, T/C (second compound 0.0949 µM, first compound 0.01 µM): 16.8%
viability, T/C [25]: 12.1%
viability, T/C [26]: 5.71%
viability, T/C [27]: 3.46%
viability, T/C [28]: 2.86%
viability, T/C (second compound 0.3 µM, first compound 0.00316 µM): 15.9%
viability, T/C (second compound 0.3 µM, first compound 0.01 µM): 15%
viability, T/C [31]: 10.6%
viability, T/C [32]: 4.53%
viability, T/C [33]: 4.09%
viability, T/C [34]: 1.86%

IC50 (second compound 0.000949 µM): > 10000 nM
IC50 (second compound 0.003 µM): > 10000 nM
IC50 (second compound 0.00949 µM): < 31.6 nM
IC50 (second compound 0.03 µM): < 31.6 nM
IC50 (second compound 0.0949 µM): < 31.6 nM
IC50 (second compound 0.3 µM): < 31.6 nM
Compound: Cc1nc(N2CCC3(CC2)COC(C)C3N)c(CO)nc1Sc1ccnc(N)c1Cl (stereo not drawn) + CCn1c(-c2cc(N3CCN(C)CC3)cnc2C(C)OC)c2c3cc(ccc31)-c1csc(n1)CC(NC(=O)C1CC1C)C(=O)N1CCCC(N1)C(=O)OCC(C)(C)C2
viability, T/C [1]: 80.8%
viability, T/C [2]: 91.1%
viability, T/C [3]: 76.1%
viability, T/C [4]: 80.9%
viability, T/C [5]: 64.2%
viability, T/C [6]: 76.8%
viability, T/C [7]: 60.9%
viability, T/C [8]: 47.7%
viability, T/C [9]: 64%
viability, T/C [10]: 54.8%
viability, T/C [11]: 47%
viability, T/C [12]: 54.1%
viability, T/C [13]: 43.1%
viability, T/C [14]: 34.9%
viability, T/C [15]: 37.4%
viability, T/C [16]: 41.1%
viability, T/C [17]: 24.6%
viability, T/C [18]: 29.7%
viability, T/C [19]: 36.7%
viability, T/C [20]: 30.2%
viability, T/C [21]: 21%
viability, T/C [22]: 19.1%
viability, T/C [23]: 17.3%
viability, T/C [24]: 15.9%
viability, T/C [25]: 21.4%
viability, T/C [26]: 27.6%
viability, T/C [27]: 14.4%
viability, T/C [28]: 14.2%
viability, T/C [29]: 11%
viability, T/C [30]: 11.9%
viability, T/C [31]: 23.4%
viability, T/C [32]: 18.5%
viability, T/C [33]: 20%
viability, T/C [34]: 12.7%
viability, T/C [35]: 10.1%
viability, T/C [36]: 7.03%
